# Assay results published in patent publication US9695155B2, “Herbicidal substituted pyrimidinyloxy benzene compounds” (E. I. DU PONT DE NEMOURS AND COMPANY, priority 2013, dated 2017).
# Key:
# corn [1] = assay: Test A postemergence; format: in vivo, Zea mays; details: for Corn plant response rating: 125 g ai/ha
# How it was run: (§1)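 Pre- and postemergence greenhouse screen. Soil: loam + sand. Spray carrier: solvent mixture, non-phytotoxic, with surfactant. Post timing at 1–2 leaves, height 2–10 cm. Readout: visual injury on a 0–100 scale roughly 10 days after application, untreated plants as reference.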
# sedge, umbrella = assay: Test B flooded paddy test; format: in vivo, Cyperus difformis; details: Flood, 250 g ai/ha; 0 to 100 scale where 0 is no effect and 100 is complete control
# How it was run: (§2)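 Visual ratings on a 0 to 100 scale, where 100 means complete control, compared treated plants with controls after 13 to 15 days in a greenhouse. Treatment went into paddy water 3 cm deep over the soil, applied to plants at the 2-leaf stage.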
# barnyardgrass [2] = assay: Test A postemergence; format: in vivo, Echinochloa crus-galli; details: for Barnyardgrass plant response rating: 125 g ai/ha
# How it was run: as §1
# giant foxtail [3] = assay: Test A preemergence; format: in vivo, Setaria faberii; details: for Foxtail, Giant plant response rating (0 to 100 scale): 125 g ai/ha
# How it was run: as §1
# morningglory [4] = assay: Test A postemergence; format: in vivo, Ipomoea spp.; details: for Morningglory plant response rating: 125 g ai/ha
# How it was run: as §1
# morningglory [5] = assay: Test A preemergence; format: in vivo, Ipomoea spp.; details: for Morningglory plant response rating (0 to 100 scale): 125 g ai/ha
# How it was run: as §1
# velvetleaf [6] = assay: Test A preemergence; format: in vivo, Abutilon theophrasti; details: for Velvetleaf plant response rating (0 to 100 scale): 125 g ai/ha
# How it was run: as §1
# pigweed [7] = assay: Test A postemergence; format: in vivo, Amaranthus retroflexus; details: for Pigweed plant response rating: 125 g ai/ha
# How it was run: as §1
# velvetleaf [8] = assay: Test A postemergence; format: in vivo, Abutilon theophrasti; details: for Velvetleaf plant response rating: 125 g ai/ha
# How it was run: as §1
# rice = assay: Test B flooded paddy test; format: in vivo, Oryza sativa; details: Flood, 250 g ai/ha; 0 to 100 scale where 0 is no effect and 100 is complete control
# How it was run: as §2
# Heteranthera limosa = assay: Test B flooded paddy test; format: in vivo; details: Flood, 250 g ai/ha; 0 to 100 scale where 0 is no effect and 100 is complete control
# How it was run: as §2
# barnyardgrass [9] = assay: Test B flooded paddy test; format: in vivo, Echinochloa crus-galli; details: Flood, 250 g ai/ha; 0 to 100 scale where 0 is no effect and 100 is complete control
# How it was run: as §2
# pigweed [10] = assay: Test A preemergence; format: in vivo, Amaranthus retroflexus; details: for Pigweed plant response rating (0 to 100 scale): 125 g ai/ha
# How it was run: as §1
# corn [11] = assay: Test A preemergence; format: in vivo, Zea mays; details: for Corn plant response rating (0 to 100 scale): 125 g ai/ha
# How it was run: as §1
# barnyardgrass [12] = assay: Test A preemergence; format: in vivo, Echinochloa crus-galli; details: for Barnyardgrass plant response rating (0 to 100 scale, 0 is no effect, 100 is complete control): 125 g ai/ha
# How it was run: as §1
# wheat [13] = assay: Test A preemergence; format: in vivo, Triticum aestivum; details: for Wheat plant response rating (0 to 100 scale): 125 g ai/ha
# How it was run: as §1
# giant foxtail [14] = assay: Test A postemergence; format: in vivo, Setaria faberii; details: for Foxtail, Giant plant response rating: 125 g ai/ha
# How it was run: as §1
# large (Lg) crabgrass [15] = assay: Test A postemergence; format: in vivo, Digitaria sanguinalis; details: for Crabgrass, Large plant response rating: 125 g ai/ha
# How it was run: as §1
# wheat [16] = assay: Test A postemergence; format: in vivo, Triticum aestivum; details: for Wheat plant response rating: 125 g ai/ha
# How it was run: as §1
# large (Lg) crabgrass [17] = assay: Test A preemergence; format: in vivo, Digitaria sanguinalis; details: for Crabgrass, Large plant response rating (0 to 100 scale): 125 g ai/ha
# How it was run: as §1
# [18] = 0 to 100 scale where 0 is no effect and 100 is complete control
# [19] = 500 g ai/ha, 0 to 100 scale where 0 is no effect and 100 is complete control
# [20] = 1000 g ai/ha, 0 to 100 scale, 0 no effect, 100 complete control
# [21] = 1000 g ai/ha, 0 to 100 scale, 0 no effect, 100 complete control, approx. 10 days
compound,measurement,setting,value
COc1cnn(-c2ccccc2Oc2ncc(Cl)cn2)c1 [Compound 186],Corn plant response rating,corn [1]; [18],0
same,"Plant response rating, Corn",corn [1]; [19],30
same,"Plant response rating, Sedge, Umbrella","sedge, umbrella",0
same,Barnyardgrass plant response rating,barnyardgrass [2]; [18],20
same,"Plant response rating, Barnyardgrass",barnyardgrass [2]; [19],70
same,"Foxtail, Giant plant response rating (0 to 100 scale)",giant foxtail [3],80
same,"Foxtail, Giant plant response rating",giant foxtail [3]; [19],100
same,Morningglory plant response rating,morningglory [4]; [18],60
same,"Plant response rating, Morningglory",morningglory [4]; [19],100
same,Morningglory plant response rating (0 to 100 scale),morningglory [5],0
same,Morningglory plant response rating,morningglory [5]; [19],20
same,Velvetleaf plant response rating (0 to 100 scale),velvetleaf [6],70
same,Velvetleaf plant response rating,velvetleaf [6]; [19],100
same,Pigweed plant response rating,pigweed [7]; [18],100
same,"Plant response rating, Pigweed",pigweed [7]; [19],100
same,Velvetleaf plant response rating,velvetleaf [8]; [18],80
same,"Plant response rating, Velvetleaf",velvetleaf [8]; [19],90
same,"Plant response rating, Rice",rice,0
same,"Plant response rating, Ducksalad",Heteranthera limosa,0
same,"Plant response rating, Barnyardgrass",barnyardgrass [9],0
same,Pigweed plant response rating (0 to 100 scale),pigweed [10],100
same,Pigweed plant response rating,pigweed [10]; [19],100
same,Corn plant response rating (0 to 100 scale),corn [11],0
same,Corn plant response rating,corn [11]; [19],0
same,"Barnyardgrass plant response rating (0 to 100 scale, 0 is no effect, 100 is complete control)",barnyardgrass [12],30
same,Barnyardgrass plant response rating,barnyardgrass [12]; [19],100
same,Wheat plant response rating (0 to 100 scale),wheat [13],0
same,Wheat plant response rating,wheat [13]; [19],20
same,"Foxtail, Giant plant response rating",giant foxtail [14]; [18],20
same,"Plant response rating, Foxtail, Giant",giant foxtail [14]; [19],80
same,"Crabgrass, Large plant response rating",large (Lg) crabgrass [15]; [18],40
same,"Plant response rating, Crabgrass, Large",large (Lg) crabgrass [15]; [19],70
same,Wheat plant response rating,wheat [16]; [18],0
same,"Plant response rating, Wheat",wheat [16]; [19],60
same,"Crabgrass, Large plant response rating (0 to 100 scale)",large (Lg) crabgrass [17],100
same,"Crabgrass, Large plant response rating",large (Lg) crabgrass [17]; [19],100
Clc1cnc(Oc2ccccc2-n2cc(-c3ccccn3)cn2)nc1 [Compound 190],Corn plant response rating,corn [1]; [18],0
same,"Plant response rating, Corn",corn [1]; [19],20
same,"Plant response rating, Sedge, Umbrella","sedge, umbrella",0
same,Barnyardgrass plant response rating,barnyardgrass [2]; [18],0
same,"Plant response rating, Barnyardgrass",barnyardgrass [2]; [19],10
same,"Foxtail, Giant plant response rating (0 to 100 scale)",giant foxtail [3],10
same,"Foxtail, Giant plant response rating",giant foxtail [3]; [19],80
same,Morningglory plant response rating,morningglory [4]; [18],30
same,"Plant response rating, Morningglory",morningglory [4]; [19],90
same,Morningglory plant response rating (0 to 100 scale),morningglory [5],0
same,Morningglory plant response rating,morningglory [5]; [19],20
same,Velvetleaf plant response rating (0 to 100 scale),velvetleaf [6],50
same,Velvetleaf plant response rating,velvetleaf [6]; [19],60
same,Pigweed plant response rating,pigweed [7]; [18],100
same,"Plant response rating, Pigweed",pigweed [7]; [19],100
same,Velvetleaf plant response rating,velvetleaf [8]; [18],60
same,"Plant response rating, Velvetleaf",velvetleaf [8]; [19],80
same,"Plant response rating, Rice",rice,0
same,"Plant response rating, Ducksalad",Heteranthera limosa,0
same,"Plant response rating, Barnyardgrass",barnyardgrass [9],0
same,Pigweed plant response rating (0 to 100 scale),pigweed [10],100
same,Pigweed plant response rating,pigweed [10]; [19],100
same,Corn plant response rating (0 to 100 scale),corn [11],0
same,Corn plant response rating,corn [11]; [19],0
same,"Barnyardgrass plant response rating (0 to 100 scale, 0 is no effect, 100 is complete control)",barnyardgrass [12],0
same,Barnyardgrass plant response rating,barnyardgrass [12]; [19],10
same,Wheat plant response rating (0 to 100 scale),wheat [13],0
same,Wheat plant response rating,wheat [13]; [19],0
same,"Foxtail, Giant plant response rating",giant foxtail [14]; [18],0
same,"Plant response rating, Foxtail, Giant",giant foxtail [14]; [19],40
same,"Crabgrass, Large plant response rating",large (Lg) crabgrass [15]; [18],10
same,"Plant response rating, Crabgrass, Large",large (Lg) crabgrass [15]; [19],50
same,Wheat plant response rating,wheat [16]; [18],0
same,"Plant response rating, Wheat",wheat [16]; [19],0
same,"Crabgrass, Large plant response rating (0 to 100 scale)",large (Lg) crabgrass [17],20
same,"Crabgrass, Large plant response rating",large (Lg) crabgrass [17]; [19],90
N#Cc1cccc(Oc2ncc(Cl)cn2)c1-n1cncn1 [Compound 193],"Plant response rating, Corn",corn [1]; [20],60
same,"Plant response rating, Sedge, Umbrella","sedge, umbrella",0
same,"Plant response rating, Barnyardgrass",barnyardgrass [2]; [20],90
same,"Foxtail, Giant plant response rating",giant foxtail [3]; [21],100
same,"Plant response rating, Morningglory",morningglory [4]; [20],90
same,Morningglory plant response rating,morningglory [5]; [21],100
same,Velvetleaf plant response rating,velvetleaf [6]; [21],90
same,"Plant response rating, Pigweed",pigweed [7]; [20],100
same,"Plant response rating, Velvetleaf",velvetleaf [8]; [20],90
same,"Plant response rating, Rice",rice,0
same,"Plant response rating, Ducksalad",Heteranthera limosa,0
same,"Plant response rating, Barnyardgrass",barnyardgrass [9],0
same,Pigweed plant response rating,pigweed [10]; [21],100
same,Corn plant response rating,corn [11]; [21],20
same,Barnyardgrass plant response rating,barnyardgrass [12]; [21],60
same,Wheat plant response rating,wheat [13]; [21],20
same,"Plant response rating, Foxtail, Giant",giant foxtail [14]; [20],80
same,"Plant response rating, Crabgrass, Large",large (Lg) crabgrass [15]; [20],80
same,"Plant response rating, Wheat",wheat [16]; [20],20
same,"Crabgrass, Large plant response rating",large (Lg) crabgrass [17]; [21],100
